Data: ChEMBL document CHEMBL6103585, “Construction and activity evaluation of novel CHS inhibitors against fungal infections” (Eur J Med Chem, 2025)
Converted amounts (≈) assume the structure as drawn. The source made the active and inactive calls. The rule behind the calls is not given here.

Key:
[1] = test system: Aspergillus fumigatus; experiment: Antifungal activity against Aspergillus fumigatus KM 8001 assessed as fungal growth inhibition incubated for 72 hrs by broth microdilution method; format: functional
[2] = Toxicity in mouse infected with Candida albicans 901 assessed as change in AST level in presence of BPE (reference value: 76.1 +/-4.2 IU/L); conditions: in vivo
[3] = test system: Candida albicans; experiment: (§1) In vivo antifungal activity against Candida albicans 901 infected in mouse model assessed as body weight gain at 5 microg/g, iv pre-infected with fungi by intravenous injection followed by compound administration and measured on day 8; format: functional, organism-based; conditions: dose 5.0 µg/g, time 8.0 day
[4] = test system: Candida albicans; experiment: Antifungal activity against Candida albicans ATCC SC5314 assessed as fungal growth inhibition incubated for 72 hrs by broth microdilution method; format: functional
[5] = test system: Candida albicans; experiment: Induction of apoptosis in Candida albicans ATCC SC5314 assessed as early apoptotic cells by V-FITC/PI staining based flow cytometric analysis (reference value: 3.51%); format: functional
[6] = test system: Candida albicans; experiment: Induction of ROS generation in Candida albicans ATCC SC5314 assessed as increase in fluorescence intensity incubated for 12 hrs by fluorescence microscopic analysis; format: functional, organism-based
[7] = test system: Candida albicans; experiment: as §1, with “decrease in IDO protein expression level” for “body weight gain”, “8 in presence of 1-MT by Western blotting analysis” for “8”; format: functional, organism-based; conditions: dose 5.0 µg/g, time 8.0 day
[8] = Toxicity in mouse infected with Candida albicans 901 assessed as change in BUN level in presence of 1-MT (reference value: 11.4 +/-1.5 mmol/L); conditions: in vivo
[9] = test system: Candida albicans; experiment: In vivo antifungal activity against Candida albicans 901 infected in mouse model assessed as increase in CD4positive expression level in presence of BPE; format: functional, organism-based
[10] = Toxicity in mouse infected with Candida albicans 901 assessed as change in CRE level in presence of BPE (reference value: 21.5 +/-1.7 umol/L); conditions: in vivo
[11] = test system: Candida albicans; experiment: as §1, with “reduction in genetic material content in lung” for “body weight gain”, “8 in presence of 1-MT by H and E staining based analysis” for “8”; format: functional, organism-based; conditions: dose 5.0 µg/g, time 8.0 day
[12] = test system: Candida albicans; experiment: (§2) In vivo antifungal activity against Candida albicans 901 infected in mouse model assessed as body weight gain at 5 microg/g, iv pre-infected with fungi by intravenous injection followed by compound administration and measured on day 8 in presence of 1-MT; format: functional, organism-based; conditions: dose 5.0 µg/g, time 8.0 day
[13] = Toxicity in mouse infected with Candida albicans 901 assessed as change in BUN level (reference value: 11.4 +/-1.5 mmol/L); conditions: in vivo
[14] = test system: Candida albicans; experiment: as §2, with “decrease in IFN-gamma protein expression level” for “body weight gain”, “1-MT by Western blotting analysis” for “1-MT”; format: functional, organism-based; conditions: dose 5.0 µg/g, time 8.0 day
[15] = Toxicity in mouse infected with Candida albicans 901 assessed as change in ALT level (reference value: 42.8 +/-3.9 IU/L); conditions: in vivo
[16] = test system: Candida albicans; experiment: (§3) In vivo antifungal activity against Candida albicans 901 infected in mouse model assessed as decrease in IDO protein expression level at 5 microg/g, iv pre-infected with fungi by intravenous injection followed by compound administration and measured on day 8 by Western blotting analysis; format: functional, organism-based; conditions: dose 5.0 µg/g, time 8.0 day
[17] = test system: Candida albicans; experiment: In vivo antifungal activity against Candida albicans 901 infected in mouse model assessed as increase in CD4positive expression level in presence of 1-MT; format: functional, organism-based
[18] = Toxicity in mouse infected with Candida albicans 901 assessed as change in AST level in presence of 1-MT (reference value: 76.1 +/-4.2 IU/L); conditions: in vivo
[19] = test system: Candida albicans; experiment: In vivo antifungal activity against Candida albicans 901 infected in mouse model assessed as decrease in IL-2 protein expression level at 5 microg/g, iv pre-infected with fungi by intravenous injection followed by compound administration and measured on day 8 by Western blotting analysis; format: functional, organism-based; conditions: dose 5.0 µg/g, time 8.0 day
[20] = Toxicity in mouse infected with Candida albicans 901 assessed as change in BUN level in presence of BPE (reference value: 11.4 +/-1.5 mmol/L); conditions: in vivo
[21] = Toxicity in mouse infected with Candida albicans 901 assessed as change in CRE level (reference value: 21.5 +/-1.7 umol/L); conditions: in vivo
[22] = test system: Candida albicans; experiment: Antifungal activity against fluconazole-resistant Candida albicans 901 assessed as reduction in fungal growth incubated for 72 hrs by broth microdilution method; format: functional
[23] = test system: Candida albicans; experiment: Antifungal activity against fluconazole-resistant Candida albicans 17# assessed as reduction in fungal growth incubated for 72 hrs by broth microdilution method; format: functional
[24] = test system: Candida albicans; experiment: as §3, with “8 in presence of BPE” for “8”; format: functional, organism-based; conditions: dose 5.0 µg/g, time 8.0 day
[25] = Toxicity in mouse infected with Candida albicans 901 assessed as change in ALT level in presence of 1-MT (reference value: 42.8 +/-3.9 IU/L); conditions: in vivo
[26] = test system: Cryptococcus neoformans; experiment: Antifungal activity against Cryptococcus neoformans ZKCC 2209 assessed as fungal growth inhibition incubated for 72 hrs by broth microdilution method; format: functional
[27] = test system: Candida albicans; experiment: as §3, with “PD-L1” for “IDO”, “8 in presence of 1-MT” for “8”; format: functional, organism-based; conditions: dose 5.0 µg/g, time 8.0 day
[28] = Binding affinity to chitin synthase (unknown origin) assessed as dissociation constant by SPR analysis
[29] = test system: Candida albicans; experiment: Antifungal activity against fluconazole-resistant Candida albicans 632 assessed as reduction in fungal growth incubated for 72 hrs by broth microdilution method; format: functional
[30] = test system: Candida albicans; experiment: Fungicidal activity against Candida albicans ATCC SC5314 assessed as live cells (reference value: 92%); format: functional
[31] = test system: Candida albicans; experiment: as §2, with “recovery of alveolar structures to normal state in lung” for “body weight gain”, “BPE by H and E staining based analysis” for “1-MT”; format: functional, organism-based; conditions: dose 5.0 µg/g, time 8.0 day
[32] = test system: Candida albicans; experiment: In vivo antifungal activity against Candida albicans 901 infected in mouse model assessed as reduction in genetic material content in lung at 5 microg/g, iv pre-infected with fungi by intravenous injection followed by compound administration and measured on day 8 by H and E staining based analysis; format: functional, organism-based; conditions: dose 5.0 µg/g, time 8.0 day
[33] = test system: Candida albicans; experiment: Antifungal activity against fluconazole-resistant Candida albicans CaR assessed as reduction in fungal growth incubated for 72 hrs by broth microdilution method; format: functional
[34] = test system: Candida albicans; experiment: Induction of apoptosis in Candida albicans ATCC SC5314 assessed as viable cells by V-FITC/PI staining based flow cytometric analysis (reference value: 93.3%); format: functional
[35] = test system: Candida albicans; experiment: as §3, with “PD-L1” for “IDO”, “8 in presence of BPE” for “8”; format: functional, organism-based; conditions: dose 5.0 µg/g, time 8.0 day
[36] = test system: Candida albicans; experiment: Fungicidal activity against Candida albicans ATCC SC5314 assessed as dead cells (reference value: 8%); format: functional
[37] = Toxicity in mouse infected with Candida albicans 901 assessed as change in ALT level in presence of BPE (reference value: 42.8 +/-3.9 IU/L); conditions: in vivo
[38] = test system: Candida albicans; experiment: In vivo antifungal activity against Candida albicans 901 infected in mouse model assessed as expansion of alveolar spaces in lung at 5 microg/g, iv pre-infected with fungi by intravenous injection followed by compound administration and measured on day 8 by H and E staining based analysis; format: functional, organism-based; conditions: dose 5.0 µg/g, time 8.0 day
[39] = test system: HeLa; experiment: Cytotoxicity against human HeLa cells incubated for 24 hrs by CCK8 assay; format: functional, cell-based

With O=C(CNC(=O)c1nc2ccc(Cl)cc2c(=O)[nH]1)NCC(=O)c1ccccc1 the MIC50 [1] was 2 µg/mL (≈ 5.01 µM), the Activity [2] was 70.4 IU/L and the Activity [3] was “Active”. For the same compound, the MIC50 [4] was 1 µg/mL (≈ 2.51 µM), the Activity [5] was 14.9% and the Activity [6] was “Active”. The Activity [7] was “Active”, the Activity [8] was 10.3 mmol/L and the Activity [9] was “Active”. For the same compound, the Activity [10] was 16.3 µmol/L, the Activity [11] was “Active” and the Activity [12] was “Active”. For the same compound, the Activity [13] was 8.2 mmol/L, the Activity [14] was “Active” and the Activity [15] was 33.6 IU/L. For the same compound, the Activity [16] was “Active”, the Activity [17] was “Active” and the Activity [18] was 74.6 IU/L. For the same compound, the Activity [19] was “Active”, the Activity [20] was 9.5 mmol/L and the Activity [21] was 18.7 µmol/L. The MIC50 [22] was 4 µg/mL (≈ 10 µM), the MIC50 [23] was 4 µg/mL (≈ 10 µM) and the Activity [24] was “Active”. The Activity [25] was 40.2 IU/L, the MIC50 [26] was 1 µg/mL (≈ 2.51 µM) and the Activity [27] was “Active”. The Kd [28] was 7.52 nM, the MIC50 [29] was 2 µg/mL (≈ 5.01 µM) and the Activity [30] was 3%. For the same compound, the Activity [31] was “Active”, the Activity [32] was “Active” and the MIC50 [33] was 2 µg/mL (≈ 5.01 µM). The Activity [34] was 57.1%, the Activity [35] was “Active” and the Activity [36] was 97%. The Activity [37] was 43.6 IU/L, the Activity [38] was “Active” and the IC50 [39] was > 50000 nM.
